US9758492B2, “IDO inhibitors” (Bristol-Myers Squibb Company, priority 2013, dated 2017)
pIC50: −log10 of the molar value.

biological target: T1, Human IDO1 (Homo sapiens, UniProt P14902); assay: IDO Kynurenine Assay with Human IDO1/HEK293 Cells; format: cell-based; conditions: read-out: HEK human IDO-1 (IC50)
T1 construct: expressed in transfected cells; host or cells: HEK293
Experimental: IDO Kynurenine Assay with Human IDO1/HEK293 Cells
Human IDO1/HEK293 cells were seeded at 10,000 cells per 50 uL per well with RPMI/phenol red free media contains 10% FBS in a 384-well black wall clear bottom tissue culture plate (Matrix Technologies LLC) 125 nL of certain concentration of compound was then added to each well using ECHO liquid handling systems. The cells were incubated for 20 hours in 37° C. incubator with 5% CO2.
The compound treatments were stopped by adding Trichloroacetic Acid (Sigma-Aldrich) to a final concentration at 0.2%. The cell plate was further incubated at 50° C. for 30 minute. The equal volume supernatant (20 uL) and 0.2% (w/v) Ehrlich reagent (4-dimethylaminobenzaldehyde, Sigma-Aldrich) in glacial acetic acid were mixed in a new clear bottom 384-well plate. This plate was then incubated at room temperature for 30 minute. The absorbance at 490 nm was measured on Envision plate reader.
Compound IC50 values were calculated using the counts of 500 nM of a reference standard treatment as one hundred percent inhibition, and counts of no compound but DMSO treatment as zero percent inhibition.

T1 sequence (P14902 whole entry): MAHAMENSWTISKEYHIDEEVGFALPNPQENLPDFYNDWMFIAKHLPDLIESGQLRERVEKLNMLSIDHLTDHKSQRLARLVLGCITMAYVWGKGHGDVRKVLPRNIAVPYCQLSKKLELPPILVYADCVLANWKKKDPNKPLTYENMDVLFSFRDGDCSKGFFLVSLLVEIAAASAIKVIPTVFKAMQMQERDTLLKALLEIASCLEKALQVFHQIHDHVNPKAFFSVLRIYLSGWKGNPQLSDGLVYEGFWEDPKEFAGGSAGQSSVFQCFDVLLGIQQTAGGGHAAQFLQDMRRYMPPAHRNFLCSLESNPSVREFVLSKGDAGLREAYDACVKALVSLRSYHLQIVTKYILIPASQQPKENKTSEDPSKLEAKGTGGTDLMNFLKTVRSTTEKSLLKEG

SMILES | pIC50
C=C(C)CN(CCCC(F)(F)F)c1ccc(-c2cc(F)ccc2C(=O)O)cc1NC(=O)Nc1ccc(C)cc1 [Example 419] | 8.29
Cc1ccc(NC(=O)Nc2cc(-c3cc(F)ccc3C(=O)O)ccc2N(CCCC(F)(F)F)C2CCCCC2)cc1 [Example 415] | 6.89
CC(C)CN(c1c(F)cc(-c2ccccc2-c2nnn[nH]2)cc1NC(=O)Nc1ccccc1F)C1CCCCC1 [Example 430] | 9.22
COCCN(c1ccc(-c2cc(F)ccc2C(=O)O)cc1NC(=O)Nc1ccc(C)cc1)C1CCCCC1 [Example 447] | 7.22
CCC(CC)N(CC(C)C)c1ccc(-c2ccccc2-c2nnn[nH]2)cc1NC(=O)Nc1ccccc1F [Example 449] | 8.85
Cc1ccc(NC(=O)Nc2cc(-c3cc(F)ccc3C(=O)O)c(F)cc2N(CC(C)C)C2CCC(F)(F)CC2)cc1 [Example 519, 4′-((4,4-Difluorocyclohexyl)(isobutyl)amino)-2′,5-difluoro-5′-(3-(p-tolyl)ureido)-[1,1′-biphenyl]-2-carboxylic acid] | 8.16
Cc1ccc(NC(=O)Nc2cc(-c3cc(F)ccc3C(=O)O)c(F)cc2N(CC(C)C)CC(C)C)cc1 [Example 426] | 8.05
CC(C)CN(c1ccc(-c2cc(F)ccc2C(=O)O)cc1NC(=O)Nc1ccc(C#N)nc1)C1CCCCC1 [Example 488] | 8.46
COCCN(c1ccc(-c2ccccc2C(=O)O)cc1NC(=O)Nc1ccc(C)cc1)C1CCCCC1 [Example 445] | 7.30
CC(C)CN(c1ccc(-c2cc(F)ccc2C(=O)O)cc1NC(=O)Nc1ccnnc1)C1CCCCC1 [Example 401] | 5.93
Cc1ccc(NC(=O)Nc2cc(-c3cc(F)ccc3C(=O)O)c(F)cc2N(CC(C)C)C2C[C@H]3CC[C@@H]2C3)cc1 (stereo partly drawn) [Example 410] | 7.30
CC(C)CN(c1cc(F)c(-c2cc(F)ccc2C(=O)O)cc1NC(=O)Nc1ccc2c(c1)OCO2)C1CCC(F)(F)CC1 [Example 531, 5′-(3-(Benzo[d][1,3]dioxol-5-yl)ureido)-4′-((4,4-difluorocyclohexyl)(isobutyl)amino)-2′,5-difluoro-[1,1′-biphenyl]-2-carboxylic acid] | 7.70
CCC(CC)N(CC(C)C)c1ccc(-c2cc(F)ccc2C(=O)O)cc1NC(=O)Nc1ccc(Cl)cc1F [Example 442] | 8.65
COC(C)(C)CCN(c1ccc(-c2cc(F)ccc2C(=O)O)cc1NC(=O)Nc1ccc(C)cc1)C1CCCCC1 [Example 421] | 5.48
COc1ccc(-c2ccc(N(CC(C)C)CC(C)C)c(NC(=O)Nc3ccc(Cl)cc3F)c2)c(C(=O)O)c1 [Example 494] | 7.52
Cc1ccc(NC(=O)Nc2cc(-c3ccccc3C(=O)O)cc(F)c2N(CC(C)C)C2CCCCC2)cc1 [Example 437] | 8.50
CC(C)CN(c1cc(F)c(-c2cc(F)ccc2C(=O)O)cc1NC(=O)Nc1ccc(C(F)(F)F)nc1)C1CCCCC1 [Example 517, 4′-(Cyclohexyl(isobutyl)amino)-2′,5-difluoro-5′-(3-(6-(trifluoromethyl)pyridin-3-yl)ureido)-[1,1′-biphenyl]-2-carboxylic acid] | 7.15
C=C(C)CN(CCCC(F)(F)F)c1ccc(-c2ccccc2-c2nnn[nH]2)cc1NC(=O)Nc1ccc(C)cc1 [Example 417] | 8.72
[2H]C([2H])(C(C)C)N(c1ccc(-c2ccccc2C(=O)O)cc1NC(=O)Nc1ccc(C)cc1)C([2H])([2H])C(C)C [Example 478] | 8.00
Cc1cc(NC(=O)Nc2cc(-c3ccccc3-c3nnn[nH]3)ccc2N(C2CC2)C2CC2)no1 [Example 509, 1-(4-(Dicyclopropylamino)-2′-(1H-tetrazol-5-yl)-[1,1′-biphenyl]-3-yl)-3-(5-methylisoxazol-3-yl)urea] | 5.18
Cc1c(Br)cc(NC(=O)Nc2cc(-c3cc(F)ccc3C(=O)O)ccc2N(CC(C)C)C2CCCCC2)cc1Br [Example 507, 4′-(Cyclohexyl(isobutyl)amino)-3′-(3-(3,5-dibromo-4-methylphenyl)ureido)-5-fluoro-[1,1′-biphenyl]-2-carboxylic acid] | 5.54
COc1ccc(-c2ccc(N(CC(C)C)CC(C)C)c(NC(=O)Nc3ccc(C#N)nc3)c2)c(C(=O)O)c1 [Example 498] | 6.23
CC(C)CN(CC(C)C)c1ccc(-c2ccccc2-c2nnn[nH]2)cc1NC(=O)Nc1ccc(C(C)C)cc1 [Example 455] | 6.29
Cc1cccc(NC(=O)Nc2cc(-c3cc(F)ccc3C(=O)O)c(F)cc2N(CC(C)C)C2CCCCC2)c1 [Example 516, 4′-(Cyclohexyl(isobutyl)amino)-2′,5-difluoro-5′-(3-(m-tolyl)ureido)-[1,1′-biphenyl]-2-carboxylic acid] | 7.30

biological target: IDO (Homo sapiens, UniProt P14902); assay: LLE_IDO_ABS_DR (IDO assay); conditions: not given
Sequence (P14902 whole entry): as above

SMILES | pIC50
Cc1ccc(NC(=O)Nc2cc(-c3ccccc3-c3nnn[nH]3)ccc2N(CCc2ccccc2)CCC(F)(F)F)cc1 [Example 334, 1-(4-(phenethyl(3,3,3-trifluoropropyl)amino)-2′-(1H-tetrazol-5-yl)-[1,1′-biphenyl]-3-yl)-3-(p-tolyl)urea] | 7.70
CC(C)CN(c1ccc(-c2cc(F)ccc2C(=O)O)cc1NC(=O)Nc1ccc(F)cc1F)C(C)C [Example 158, 3′-(3-(2,4-difluorophenyl)ureido)-5-fluoro-4′-(isobutyl(isopropyl)amino)biphenyl-2-carboxylic acid] | 7.52
Cc1ccc(NC(=O)Nc2cc(-c3cc(F)ccc3C(=O)O)ccc2N(CCC(C)C(F)(F)F)C2CCCCC2)cc1 (stereo not drawn) [Example 189, 4′-(cyclohexyl(4,4,4-trifluoro-3-methylbutyl)amino)-5-fluoro-3′-(3-(p-tolyl)ureido)-[1,1′-biphenyl]-2-carboxylic acid] | 6.32
CC(C)CN(CC(C)C)c1ccc(-c2ccccc2-c2nnn[nH]2)cc1NC(=O)NC(C)C [Example 246, 1-(4-(diisobutylamino)-2′-(1H-tetrazol-5-yl)-[1,1′-biphenyl]-3-yl)-3-isopropylurea] | 5.91
COc1ccc(-c2ccc(N(CC(C)C)CC(C)C)c(NC(=O)Nc3ccc(C)cc3)c2)c(-c2nnn[nH]2)c1 [Example 117, 1-(4-(diisobutylamino)-4′-methoxy-2′-(1H-tetrazol-5-yl)biphenyl-3-yl)-3-p-tolylurea] | 8.00
CC(C)CN(CC(C)C)c1ccc(-c2ccccc2-c2nnn[nH]2)cc1NC(=O)Nc1ccc(F)c(Cl)c1 [Example 286, 1-(3-chloro-4-fluorophenyl)-3-(4-(diisobutylamino)-2′-(1H-tetrazol-5-yl)biphenyl-3-yl)urea] | 6.96
Cc1ccc(NC(=O)Nc2cc(-c3ccccc3-c3nnn[nH]3)ccc2N2CCC(c3ccc(F)cc3)C2)cn1 (stereo not drawn) [Example 387] | 5.65
O=C(Nc1cc(-c2ccccc2-c2nnn[nH]2)ccc1N(CCC(F)(F)F)Cc1ccc(C(F)(F)F)cc1)Nc1ccccc1C(F)(F)F [Example 328, 1-(2′-(1H-tetrazol-5-yl)-4-((4-(trifluoromethyl)benzyl)(3,3,3-trifluoropropyl)amino)-[1,1′-biphenyl]-3-yl)-3-(2-(trifluoromethyl)phenyl)urea] | 6.41
COc1ccc(-c2ccc(N(C)c3ccccc3C(C)(C)C)c(NC(=O)Nc3ccccc3F)c2)cc1C(=O)O [Example 209, 4′-((2-(tert-butyl)phenyl) (methyl)amino)-3′-(3-(2-fluorophenyl)ureido)-4-methoxy-[1,1′-biphenyl]-3-carboxylic acid] | 6.25
